The values that follow come from ChEMBL document CHEMBL1201862, “PubChem BioAssay data set” (2004).

The structures appear in SMILES notation. Counter-ions that a name gives are not always drawn.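 Each compound was tested at five concentrations against cells in 96-well plates for 48 hours. GI50 marks 50% less growth.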 The source made the active and inactive calls. Cut-off read from the data, not from the text of the source: active = GI50 up to about 1.1 µM and inactive = higher.

Holding throughout (test): inhibition of tumour cell growth, NCI panel, 48 h
Experiment [1] relates to 786-0.
Experiment [2] relates to CAKI-1.
In experiment [3] the test system is HT-29.
Experiment [4] deals with MDA-MB-231.
Experiment [5] has as its system MDA-MB-435.
In experiment [6] the test system is MDA-N.
Experiment [7] has as its system Malme-3M.
Experiment [8] has as its system NCI-H226.
Experiment [9] has as its system NCI/ADR-RES.
For experiment [10], the system named is OVCAR-4.
Experiment [11] relates to OVCAR-5.
The test system of experiment [12] is PC-3.
Experiment [13] concerns RXF 393.
For experiment [14], the system named is SK-MEL-5.
In experiment [15] the test system is SK-OV-3.
Experiment [16] has as its system SN12C.
In experiment [17] the test system is SR.
Experiment [18] relates to UACC-257.
Experiment [19] has as its system UO-31.
Experiment [20] has as its system SF-539.

With `CC(C)Cn1cnc2c(SCc3ccccn3)nc(N)nc21`, the GI50 in experiment [1], in [2], in experiment [3], in experiment [4], in [5] and in experiment [6] was > 100 µM (inactive) in each case. The GI50 in experiment [7], in experiment [8], in experiment [9], in [10], in experiment [11] and in [12] was > 100 µM (inactive) in each case. In addition, the GI50 in experiment [13], in experiment [14], in experiment [15], in [16], in [17] and in experiment [18] was > 100 µM (inactive) in each case. Besides, in experiment [19], the GI50 was > 100 µM (inactive).

Regarding `Cc1ccc(S(=O)(=O)NC(=O)NC(CC(N)=O)C(=O)O)cc1` (stereo not drawn), the GI50 in experiment [1], in [3], in [4], in experiment [6], in [7] and in [9] was > 100 µM (inactive) each time. Besides, the GI50 in experiment [10], in experiment [11], in experiment [12], in experiment [13], in [20] and in [14] was > 100 µM (inactive) in each case. In addition, the GI50 in [15], in [16], in experiment [17], in [18] and in [19] was > 100 µM (inactive) throughout.

In the case of `CC(=O)Oc1ccc2c3c1O[C@H]1[C@H](O)CC[C@@]4(O)[C@@H](C2)N(C)CC[C@]314`, the GI50 in experiment [1], in experiment [2], in experiment [3], in experiment [4], in experiment [5] and in [6] was > 100 µM (inactive) throughout. The GI50 in experiment [7], in experiment [8], in [9], in experiment [10], in experiment [11] and in experiment [12] was > 100 µM (inactive) in each case. Besides, the GI50 in experiment [20], in [14], in [15], in experiment [16], in experiment [17] and in [18] was > 100 µM (inactive) in each case. In addition, the GI50 in experiment [19] is > 100 µM (inactive).

In the case of `Cc1c2cccc-2c(OCCOC(=O)n2ccnc2)cc2c1[nH]c1ccccc12`, the GI50 in [1] is 3.87 µM (inactive); in experiment [2] it was 3.66 µM (inactive); in experiment [3], 2.27 µM (inactive); in experiment [5], 3.12 µM (inactive); in [6], 4.8 µM (inactive); in experiment [7] it was 2.79 µM (inactive). Also, the GI50 in experiment [8] was 2.39 µM (inactive); in experiment [9], 2.82 µM (inactive); in [10], 2.32 µM (inactive); in experiment [11], 2.55 µM (inactive); in [12] it was 1.75 µM (inactive); in experiment [13], 2.57 µM (inactive). The GI50 in [14] was 2.42 µM (inactive); in experiment [15] it was 4.74 µM (inactive); in experiment [16], 2.58 µM (inactive); in experiment [17], 3.31 µM (inactive); in experiment [18], 2.73 µM (inactive); in experiment [19], 1.84 µM (inactive).

For `CCOC(=O)/C=C1\Nc2ccccc2C12CCc1c([nH]c3ccccc13)C2C(=O)OCC` (stereo not drawn), the GI50 in [1] is 57.8 µM (inactive); in experiment [2], 11.7 µM (inactive); in experiment [3], 9.08 µM (inactive); in experiment [4], 18 µM (inactive); in [5], 6.27 µM (inactive); in [6], 7.85 µM (inactive). Further, the GI50 in experiment [7] is 10.3 µM (inactive); in experiment [9], 11.8 µM (inactive); in experiment [10], 16.3 µM (inactive); in experiment [11], > 100 µM (inactive); in [12], > 100 µM (inactive); in experiment [13], > 100 µM (inactive). Further, the GI50 in experiment [20] was 71.8 µM (inactive); in experiment [14], 21.8 µM (inactive); in experiment [15] it was 30.2 µM (inactive); in [16] it was 44.3 µM (inactive); in experiment [17], 25.8 µM (inactive); in experiment [18] it was 24 µM (inactive). Also, the GI50 in experiment [19] was 21.3 µM (inactive).

As to `COc1cc(COC(=O)N2CCC2C(=O)O)c([N+](=O)[O-])cc1OC` (stereo not drawn), the GI50 in experiment [1], in experiment [3], in experiment [5], in experiment [6], in experiment [7] and in experiment [8] was > 100 µM (inactive) throughout. The GI50 in experiment [9], in experiment [11], in experiment [12], in [13], in experiment [20] and in [14] was > 100 µM (inactive) in each case. Besides, the GI50 in experiment [15], in experiment [16], in [17], in [18] and in experiment [19] was > 100 µM (inactive) throughout.

Take `CN(C(=O)[C@H](NC(=O)OCc1ccccc1)c1ccccc1)C1CCCCC1N1CCCC1` (stereo partly drawn): the GI50 in experiment [1] was 95.1 µM (inactive); in experiment [2] it was > 100 µM (inactive); in experiment [3] it was 38.1 µM (inactive); in experiment [4] it was > 100 µM (inactive); in experiment [5] it was 70.8 µM (inactive); in [6], > 100 µM (inactive). The GI50 in [7] was 48.4 µM (inactive); in experiment [8], 0.55 µM (active); in experiment [9] it was > 100 µM (inactive); in experiment [10], 51.4 µM (inactive); in [11] it was > 100 µM (inactive); in experiment [12] it was 69.7 µM (inactive). Besides, the GI50 was 87.3 µM (inactive) in [13]; 16 µM (inactive) in experiment [14]; > 100 µM (inactive) in experiment [15]; > 100 µM (inactive) in [16]; 20.7 µM (inactive) in experiment [17]; 26.1 µM (inactive) in [18]. Moreover, the GI50 in experiment [19] is 48.5 µM (inactive).

Take `C1CSCC2(COC2)CSCCSCC2(COC2)CS1`: the GI50 in experiment [1], in experiment [3], in experiment [4], in experiment [5], in [6] and in experiment [9] was > 100 µM (inactive) each time. Also, the GI50 in [10], in [11], in [12], in [20], in experiment [14] and in experiment [15] was > 100 µM (inactive) each time. Moreover, the GI50 in [16], in experiment [17], in experiment [18] and in experiment [19] was > 100 µM (inactive) each time.

In the case of `O=C1/C(=C/c2cccc([N+](=O)[O-])c2)N=C(c2ccccc2)N1c1ccc2c(c1)Sc1cc(N3C(=O)/C(=C/c4cccc([N+](=O)[O-])c4)N=C3c3ccccc3)ccc1N2`, the GI50 was 21 µM (inactive) in experiment [1]; 22.4 µM (inactive) in experiment [2]; 91.8 µM (inactive) in experiment [3]; 29.1 µM (inactive) in experiment [4]; 18.7 µM (inactive) in experiment [5]; 19.3 µM (inactive) in [6]. Besides, the GI50 in experiment [7] was 21.4 µM (inactive); in experiment [9], 34.1 µM (inactive); in [10], 18.7 µM (inactive); in [11], 18.5 µM (inactive); in [12] it was 22 µM (inactive); in experiment [13], 21.6 µM (inactive). Besides, the GI50 is 17.3 µM (inactive) in [14], 16.4 µM (inactive) in experiment [15], 18.4 µM (inactive) in [18] and 53.3 µM (inactive) in experiment [19].

Consider `Cc1ccc(O)c(-c2cc(-c3ccccc3)nc(/N=C\c3ccccc3)n2)c1`, for which the GI50 in [1] was 32.5 µM (inactive); in experiment [3] it was > 100 µM (inactive); in [4] it was 77.3 µM (inactive); in [5], > 100 µM (inactive); in experiment [6] it was 94.2 µM (inactive); in [7] it was > 100 µM (inactive). Moreover, the GI50 in experiment [8] is 30.3 µM (inactive); in [9] it was 21.5 µM (inactive); in experiment [10] it was 31.4 µM (inactive); in [11], > 100 µM (inactive); in experiment [12], > 100 µM (inactive); in [20], 29.6 µM (inactive). The GI50 was 31.5 µM (inactive) in experiment [14]; 42.9 µM (inactive) in [16]; 59.4 µM (inactive) in experiment [17]; > 100 µM (inactive) in experiment [18]; 2.94 µM (inactive) in [19].

Turning to `O=C(OCCN1CCCCCC1)C(c1ccsc1)C1CCCCC1` (stereo not drawn) [CETIEDIL CITRATE], the GI50 in [1] was 16.5 µM (inactive); in experiment [2], 14.5 µM (inactive); in [3], 11.9 µM (inactive); in [4], 16.7 µM (inactive); in experiment [5], 16.9 µM (inactive); in experiment [6], 14 µM (inactive). Besides, the GI50 in experiment [7] is 14.4 µM (inactive); in experiment [9] it was 15.7 µM (inactive); in experiment [11], 17.3 µM (inactive); in [12], 18.4 µM (inactive); in experiment [20], 16.8 µM (inactive); in experiment [15] it was 16.9 µM (inactive). Further, the GI50 in experiment [16] was 17.9 µM (inactive); in [17], 26.6 µM (inactive); in [18] it was 18.8 µM (inactive); in experiment [19], 13.3 µM (inactive).
